Results: patent US20210041441A1, “DISCOVERY OF NOVEL MOLECULES AND REPURPOSED DRUGS FOR RAS FAMILY GTPases” (UNM Rainforest Innovations, priority 2018, published 2021)
pIC50, pKd: −log10 of the molar value. Entries after “also recorded” stand apart in the source; their conditions may differ. Blank lines part the entries; values can stand above or below the molecule they belong to.

Tests used:
[1] = test system: H-Ras, H-RasG12V, Rab and Rho subfamilies; settings: earlier studies; cited from earlier work
Q61 KRas mutants = assay: Multiplex flow cytometry Bodipy FL-GTP binding, compound dose response, Q61 mutants; parameters: species or system Human; settings: 10 nM Bodipy FL-GTP
Procedure: Bead Coupling: 4 μm diameter, glutathione-beads (GSH-beads), distinguished by ten different intensities of red fluorescence (varying by several orders of magnitude of emission at 665±10 nm with excitation at 635 nm) were obtained by special order from Duke Scientific Corp. Each polystyrene bead set is supplied at 1.4×10^8 beads/ml with approximately 1.2×10^6 glutathione sites per bead (determined by using GST—green fluorescent protein^42). Prior to incubation with individual GST-GTPase fusion proteins, an appropriate volume of each bead slurry was incubated for 30 minutes at room temperature in assay buffer (20 mM HEPES pH 7.5, 125 μM […], 1 mM MgCl2, 0.5 mM EDTA pH 8.0, 0.01% NP-40) supplemented with 1 mM dithiothreitol and 0.1% BSA. Following this initial incubation, passivated beads were collected by centrifugation and resuspended in assay buffer with individual GST-GTPase fusion proteins at a final concentration of […]. Overnight coupling reactions were carried out at 4° C. with rotation. The amount of each bead type used for coupling and the final volume of the coupling reaction was determined by the experimental protocol. Typically, bead sets are used at a final concentration of 200 bead/μL. To remove unbound GST-GTPase, bead sets were washed twice by centrifugation with ice-cold assay buffer. Individually coated beads were pooled together and kept cold in an appropriate volume before use in binding assays. Bead-bound proteins are sufficiently stable to study secondary interactions between GTPase-GST chimera's and Bodipy-FL GTP^54. Note that an extra GSH-bead set is included that is not protein coupled. This set serves as a ‘scavenger’ for proteins that might dissociate during the binding assay.
For assay screening plates, compound libraries were first dispensed into columns 3-22 using a Labcyte 555 Echo Acoustic Dispenser (San Jose, Calif.) for a final concentration of 10 μM. An equal volume (10 nL) of DMSO was added to the vehicle control wells (column 2). Following the addition of library compounds, 2 μL of assay buffer was added and the plates were mixed before addition of 5 μL of the protein-coupled bead mixtures; 10 μL of assay buffer was added to empty wells in columns 1 and 24. Empty wells serve as wash wells between compound wells and control wells. Plates were mixed and incubated on a rotator for 30 minutes at 4° C. before the addition of 3 μL of Bodipy FL-GTP resulting in a final concentration 10 nM Bodipy FL-GTP. Plates were mixed and incubated for 1 hour at 4° C. Negative controls, containing bead mixtures, Bodipy FL-GTP, and 30 μM unlabeled GTP were assayed separately. Dose response plates were assembled similarly.
Data Acquisition: Assay plates were sampled using the HyperCyt™ high throughput flow cytometry platform (Intellicyt; Albuquerque, N. Mex.). During sampling, the probe moves from well to well and samples 1-2 μL from each well with 0.4 sec transit time in the air before sampling the next well. The resulting sample stream consisting of 384 bubble-separated samples is delivered to an Accuri C6 flow cytometer (BD Biosciences; San Jose, Calif.). Bodipy FL-GTP fluorescence is excited at 488 nm and detected with a 533/30 bandpass filter. […] Gating based on red fluorescence emission distinguishes the separately coated beads. […]

[2] = test system: Ras family GTPases (KRas WT, G12v, G13d, G12a, G12c, G12d, Q61H, Q61L, Q61R; HRas WT, HRas G12v; CDC42 WT, CDC42 L61; Rac1 WT, Rac1 L61); assay: Multiplex flow cytometry Bodipy FL-GTP binding, compound screen and dose response; settings: for class of modulation of Bodipy-GTP binding to Ras family GTPases (pan activator, pan inhibitor, selective inhibitor, mixed activity modulator): multiplex, 10 nM Bodipy FL-GTP, compound 100-0.015 μM, normalized to DMSO
Procedure: Following this initial incubation, passivated beads were collected by centrifugation and resuspended in assay buffer with individual GST-GTPase fusion proteins at a final concentration of 1 M. Overnight coupling reactions were carried out at 4° C. with rotation. The amount of each bead type used for coupling and the final volume of the coupling reaction was determined by the experimental protocol. Typically, bead sets are used at a final concentration of 200 bead/μL. To remove unbound GST-GTPase, bead sets were washed twice by centrifugation with ice-cold assay buffer. Individually coated beads were pooled together and kept cold in an appropriate volume before use in binding assays. Bead-bound proteins are sufficiently stable to study secondary interactions between GTPase-GST chimera's and Bodipy-FL GTP^54. Note that an extra GSH-bead set is included that is not protein coupled. This set serves as a ‘scavenger’ for proteins that might dissociate during the binding assay.
Data Acquisition: Assay plates were sampled using the HyperCyt™ high throughput flow cytometry platform (Intellicyt; Albuquerque, N. Mex.). During sampling, the probe moves from well to well and samples 1-2 μL from each well with 0.4 sec transit time in the air before sampling the next well. […] Plate data are acquired as time-resolved files that are parsed by software-based well identification algorithms, segregating individual well data that is merged with compound library files to determine compound activity in each well. Gating based on red fluorescence emission distinguishes the separately coated beads. Plate performance was validated using the Z-prime calculation^58.
Dose response data points were fitted by Prism® software (GraphPad Software Inc., San Diego, Calif.) using nonlinear least-squares regression in a sigmoidal dose-response model with variable slope, also known as the 4-parameter logistic equation.
Each well of an assay plate contained 10 sets of beads with variable red fluorescent intensities. Nine protein-coupled bead sets, carrying the different GST-KRas proteins were combined with an uncoupled GSH-bead that serves as a scavenger for GST-proteins that might dissociate during the assay. Bead mixtures were dispensed into individual wells of a 384-well assay plate and incubated with fluorescent GTP in the presence of library compounds. The final concentration of reagents in each assay well was 10 μM compound, 10 nM Bodipy FL-GTP, and 0.1% DMSO. Each bead set was added at 200 beads/μL. Each plate was analyzed both in forward (starting with A1) and reverse direction to account for fluorescent compounds that can carryover during sampling and effect subsequent sample values. […] Excess GTP containing wells were evaluated separately and were used, along with the DMSO control wells, to calculate a Z′ value for each bead set. […] A secondary single point evaluation was performed on these identified primary hits.

[3] = test system: KRas G12v, HRas G12V, Kras Q61R, Rac1 L61, CDC42; assay: Equilibrium kinetics assays, real-time Bodipy FL-GTP association and dissociation; format: binding, Human
Procedure: Equilibrium Kinetics Assays: GTPase-coupled beads were prepared as described above and were kept on ice until used. Reactions were performed at room temperature in amber micro-centrifuge tubes in an appropriate volume of assay buffer. Bead mixtures were initially incubated on a rotator with Guanabenz acetate (100 μM) or DMSO for 30 min at 4° C. prior to the addition of 1 nM Bodipy FL-GTP. Real-time binding kinetics was recorded using an Accuri C6 flow cytometer. Binding association was followed for 15 minutes at which time excess GTP was added. Disassociation kinetics was followed for an additional 25 minutes. Data was analyzed using GraphPad Prism software. The association time course was fitted to a two phase exponential association and the dissociation time course was fitted to a two phase decay (exponential).
To determine mechanism of action, we evaluated binding and dissociation of Bodipy FL-GTP in real-time kinetic experiments in the presence of Guanabenz acetate or GTP. Tests included pre-binding of Bodipy-FL GTP at 4′ C. or RT in the presence of Mg^2+.
It was then elected to perform association rate analysis, using the order of addition of reagents used in screening, where guanabenz was added first, incubated at 4° C., then Bodipy FL-GTP was added at room temperature.

GTPases (Rac1 and Cdc42) = settings: in cells, earlier studies; read-out: IC50 values for inhibitory activity against the GTPases; cited from earlier work
GTPases = settings: cited from earlier work
[4] = molecular target: KRas proteins (Wild type, G12v, G13d, G12a, G12c, G12d, Q61L, and Q61R); assay: Dose dependent Bodipy FL-GTP binding assay, KRas multiplex; parameters: species or system Human; settings: separate KRas proteins, 1 hour at 4° C.; read-out: binding affinities
Source text: Bead Coupling: 4 μm diameter, glutathione-beads (GSH-beads), distinguished by ten different intensities of red fluorescence (varying by several orders of magnitude of emission at 665±10 nm with excitation at 635 nm) were obtained by special order from Duke Scientific Corp. Each polystyrene bead set is supplied at 1.4×10^8 beads/ml with approximately 1.2×10^6 glutathione sites per bead (determined by using GST—green fluorescent protein^42). […] The amount of each bead type used for coupling and the final volume of the coupling reaction was determined by the experimental protocol. […]
Dose Dependent Bodipy FL-GTP Binding Assays: For dose dependence binding assays, GTPase-coupled bead sets were incubated on a rotator for 1 hour at 4° C. with varying concentrations of Bodipy FL-GTP (0.3-300 nM). […] Non-specific binding of Bodipy-FL GTP was assessed by incubating coupled beads with excess GTP prior to the addition of the Bodipy analogue. […]
Assay Plate Assembly: Plate assays were performed in 384-well microtiter plates (Greiner Bio-one, #784101); plates were assembled using a BioTek MultiFlo™ Microplate Dispenser. For dose-dependent Bodipy FL-GTP binding assays, total and non-specific binding were assessed by pre-incubation (30 min/4° C.) in the absence or presence of 30 μM GTP, respectively. […]

[5] = multiplex dose response, listed as guanabenz acetate

Molecule: CC1(C)Cc2c(sc(NC(=S)NC(=O)c3ccccc3)c2C(=O)O)CO1 [CID1067700]
inhibitory activity on guanine nucleotide binding [1]: inhibitory activity against H-Ras and H-RasG12V; also recorded: broad spectrum inhibitor of the Rab and Rho subfamilies; also recorded: competitive inhibitor of nucleotide binding

effect on GTP binding to Q61 KRas mutants (Q61 KRas mutants): not to Q61 KRas mutants
class of modulation of Bodipy-GTP binding to Ras family GTPases (pan activator, pan inhibitor, selective inhibitor, mixed activity modulator) [2]: selective inhibitors
class of modulation of Bodipy-GTP binding to Ras family GTPases (pan activator, pan inhibitor, selective inhibitor, mixed activity modulator) ([2]; listed as guanabenz acetate): Selective inhibitors
displacement of pre-bound Bodipy FL-GTP ([3]; pre-binding at 4° C. or RT in the presence of Mg2+): not able to displace Bodipy FL-GTP
Molecule: N=C(N)N/N=C/c1c(Cl)cccc1Cl [Guanabenz acetate]
selectivity among GTPases (RAS vs non-RAS, individual proteins) ([2]; multiplex dose response): selective for KRas WT, the KRas G12 mutants, and the HRas proteins
activity or affinity relative to other compounds [2, 5]: most active; also recorded: comparable activity to a recently described KRas inhibitor with low μM affinity
selectivity among GTPases (RAS vs non-RAS, individual proteins) [2, 5]: does not appear to limit selectivity to G12D
association of Bodipy FL-GTP ([3]; guanabenz added first at 4° C., then Bodipy FL-GTP at room temperature, KRas G12v and HRas G12V vs Kras Q61R, Rac1 L61 and CDC42): Dramatic differences in association
dissociation of Bodipy FL-GTP ([3]; stable GTPases in the absence of Mg): did not induce dissociation

Molecule: O=C(c1ccccc1)c1ccc2n1CC[C@H]2C(=O)O [R-ketorolac]
pIC50 (GTPases (Rac1 and Cdc42)): 6.00 to 6.30

Molecule: O=C(c1ccccc1)c1ccc2n1CCC2C(=O)O (centres unmarked) [ketorolac]
reported activity (GTPases): inhibitors

Molecule: CSc1ccc(/C=C2/C(C)=C(CC(=O)O)c3cc(F)ccc32)cc1 [sulindac sulfide]
reported activity (GTPases): inhibitors

pKd [4]: 7.30 to 9.00
Molecule: Guanosine 5′-Triphosphate, BODIPY™ FL 2′-(or-3′)-O-(N-(2-Aminoethyl) Urethane), Trisodium Salt [Bodipy FL-GTP]
